# Read-outs that look alike come from different tables or passages of the source.
# Key:
# [1] = test system: Dravet syndrome (DS) patients; conditions: cited from earlier work
# scn1lab mutant zebrafish [2] = format: in vivo; conditions: for OCR response / bioenergetics relative to WT baseline: 40 μM dose of PDE4 inhibitor
# Protocol: The scn1lab mutant zebrafish employed in this Experimental section are homozygous, loss-of-function mutants. To measure bioenergetics in whole, living zebrafish (further details of which may be found in Ibhazehiebo et al. (2018) Brain 141(3):744-761), zebrafish larvae (5 days post-fertilization, dpf) were seeded into 24-well islet capture microplates (Agilent) and pre-exposed to vehicle or drug for 20 minutes prior to the start of the assay. Oxygen consumption rates (OCR) were measured using the Seahorse Bioanalyzer (Agilent).
# In a similar assay to that described above, scn1lab mutants are exposed to a 40 μM dose of a range of PDE4 inhibitors. […]
# kcna1 mutant zebrafish = assay: Bioenergetics in kcna1 mutant zebrafish (model of generalizable epilepsy and SUDEP); format: in vivo
# Scn1a mutant mice = assay: Hyperthermia-induced seizures in Scn1a mutant mice; format: in vivo, mouse; conditions: for block of seizures (partial = seizure temperature changed; full = no seizure elicited): FIG. 15 comparison, pre-treatment with PDE4 inhibitor
# Protocol: As shown in FIG. 13 (panels A and B), an example PDE4 inhibitor (AN2728) protects against hyperthermia-induced seizures in Scn1a mutant mice. In this model, a Scn1a mutant animal's core temperature is raised using an external heat source and consequently, brain temperature is raised and this leads to hyperthermic seizures. These hyperthermic seizures are thought to represent febrile seizures. In the Scn1a mutants, seizures begin around 41° C., whereas in the WT seizures are rarely detected even at temperatures as high as 43° C. […] FIG. 12B is the same data graphed differently.
# A partial block in seizures is noted when the temperature required to induce a seizure is statistically different than wildtype and a full block in seizures occurs when no seizure is elicited following pre-treatment with the PDE4 inhibitor.
# [3] = test system: mouse Scn1a mutant brain ex vivo slices; assay: Extracellular field recordings in mouse Scn1a mutant brain ex vivo slices; conditions: AN2728, 40 μM; adult Scn1a heterozygous mutant brain slices; n=3
# Protocol: The mouse Scn1a mutants employed in this Experimental section were heterozygous mutants (Scn1a−/− mice die early postnatally). […] In this assay, adult Scn1a mutant brains were rapidly removed and sectioned for electrophysiological assays. Here, extracellular field recordings were conducted to measure baseline electrophysiological activity, prior to the addition of PDE4 inhibitor (AN2728, 40 μM). A decrease in hyperexcitable amplitude and frequency was measured in the presence of AN2728.
# scn1lab mutant zebrafish [4] = assay: Electrophysiological recording of seizure-like hyperexcitability in the tectum opticum of scn1lab zebrafish; format: in vivo
# Protocol: Briefly, 6 dpf zebrafish (WT and scn1lab mutants) were paralyzed (α-bungarotoxin, 1 mg/ml, Tocris) and embedded in agarose. The dorsal side of the zebrafish was exposed to the agarose gel surface and a glass microelectrode was placed into the tectum opticum of zebrafish and electrophysiological measurements were recorded. […] Care was taken not to disrupt the pipette or move the fish in any manner. Seizure-like activity was defined by high-frequency, large amplitude spikes, as defined elsewhere (Baraban et al, 2013). Both itcal (>1000 ms in duration) and inter-ictal (<300 ms in duration) activity was observed upon zooming in on a section of the EEG trace (data not shown), consistent with epileptiform events.
# [5] = test system: 6 Hz-induced psychomotor seizures; assay: 6 Hz psychomotor seizure induction mouse model; format: in vivo
# Text: To examine the acute effect of PDE4 inhibition on seizures, the 6 Hz psychomotor model that represents therapy-resistant limbic seizures was employed (White et al., 1995; Barton et al., 2001). Briefly, compounds were screened for their ability to block psychomotor seizures induced by a low-frequency (6 Hz), long-duration (3 sec) stimulus delivered through corneal electrodes. These seizures are believed to model partial seizures observed in humans. […]
# [6] = after treatment with AN2728, n=6-10
smiles,measurement,setting,value
"C=C(C)[C@@H]1CCC(C)=C[C@H]1c1c(O)cc(CCCCC)cc1O [CBD, cannabidiol]",patients achieving full seizure freedom,[1],< 5%
same,patients with reduced seizure frequency,[1],43%
"Cn1c(=O)c2[nH]cnc2n(C)c1=O [Theophylline, theophylline]",OCR response / bioenergetics relative to WT baseline,scn1lab mutant zebrafish [2],effective in restoring bioenergetics to baseline levels
same,bioenergetics relative to wild-type baseline,kcna1 mutant zebrafish,restore bioenergetics in a kcna1 mutant zebrafish back to baseline levels
"COc1ccc(C2CNC(=O)C2)cc1OC1CCCC1 (stereo not drawn) [Rolipram, rolipram]",block of seizures (partial = seizure temperature changed; full = no seizure elicited),Scn1a mutant mice,partially or fully block seizures
same,protection against hyperthermia-induced seizures,"Scn1a mutant mice; rolipram, 3 mg/kg",neuroprotective against hyperthermia-induced seizures
same,temperature required to induce a seizure,"Scn1a mutant mice; rolipram, 3 mg/kg",raising
same,"severity of the seizure, Racine scale level","Scn1a mutant mice; rolipram, 3 mg/kg, from mostly 4-5 level without treatment",3
"COc1ccc([C@]2(C#N)CC[C@@H](C(=O)O)CC2)cc1OC1CCCC1 [Cilomilast, cilomilast]",OCR response / bioenergetics relative to WT baseline,scn1lab mutant zebrafish [2],restored OCR response to baseline levels
"O=C(Nc1c(Cl)cncc1Cl)c1ccc(OC(F)F)c(OCC2CC2)c1 [Roflumilast, roflumilast]",block of seizures (partial = seizure temperature changed; full = no seizure elicited),Scn1a mutant mice,partially or fully block seizures
same,OCR response / bioenergetics relative to WT baseline,scn1lab mutant zebrafish [2],restored OCR response to baseline levels
same,bioenergetics relative to wild-type baseline,kcna1 mutant zebrafish,restore bioenergetics in a kcna1 mutant zebrafish back to baseline levels
"CCOc1ccc(/C=C2\NCCc3cc(OCC)c(OCC)cc32)cc1OCC [Drotaverine, drotaverine]",OCR response / bioenergetics relative to WT baseline,scn1lab mutant zebrafish [2],effective in restoring bioenergetics to baseline levels
"N#Cc1ccc(Oc2ccc3c(c2)COB3O)cc1 [AN2728, 5-(4-cyanophenoxy)-2,3-dihydro-1-hydroxy-2,1-benzoxaborole]",hyperexcitable amplitude,[3],decrease
same,hyperexcitable frequency,[3],decrease
same,animals that do not ever experience a seizure,Scn1a mutant mice; AN2728 treatment,3
same,protection against hyperthermia-induced seizures,Scn1a mutant mice; AN2728 treatment,protected against hyperthermia-induced seizures
same,temperature at which the remaining animals experience a seizure,"Scn1a mutant mice; AN2728 treatment, untreated mutants seize around 41° C.",~42 °C
same,block of seizures (partial = seizure temperature changed; full = no seizure elicited),Scn1a mutant mice,partially or fully block seizures
same,OCR response relative to WT,"scn1lab mutant zebrafish [2]; AN2728 1 nM-100 nM doses, 5 dpf larvae",ineffective
same,OCR response relative to WT,"scn1lab mutant zebrafish [2]; AN2728 1 μM, 5 dpf larvae",fully restoring OCR response to WT levels
same,OCR response relative to WT,"scn1lab mutant zebrafish [2]; AN2728 10 μM, 5 dpf larvae",fully restoring OCR response to WT levels
same,toxicity (drop of OCR response below mutant levels),"scn1lab mutant zebrafish [2]; AN2728 100 μM, 5 dpf larvae",toxic
same,restoration of bioenergetics (OCR),"scn1lab mutant zebrafish [2]; AN2728 dose series 1 nM-100 μM, 5 dpf larvae, 20 min pre-exposure",dose-dependent restoration of bioenergetics
same,seizure-like activity,"scn1lab mutant zebrafish [4]; AN2728, 40 μM, 6 dpf scn1lab mutants",blocked this seizure-like activity to baseline levels
same,peak amplitude,scn1lab mutant zebrafish [4]; [6],decrease
same,seizure frequency,scn1lab mutant zebrafish [4]; [6],decrease
same,animals that responded (protected) in 6 Hz test,"[5]; dosed 30 min prior to the 6 Hz test, highest dose 300 mg/kg",1
same,animals that responded (protected) in 6 Hz test,[5]; treated two hours prior to the 6 Hz test,three out of four
"Nc1nc(N)nc(-c2cc(Cl)ccc2Cl)n1 [Irsogladine, irsogladine]",OCR response / bioenergetics relative to WT baseline,scn1lab mutant zebrafish [2],effective in restoring bioenergetics to baseline levels

# From patent US20220098257A1, “Methods of Treating Epilepsy via Phosphodiesterase 4 (PDE4) Inhibition” (Path Therapeutics, Inc., priority 2019, published 2022)
